Experimental data taken from patent US20180064739A1, “NUTRITIONAL COMPOSITION WITH HUMAN MILK OLIGOSACCHARIDES AND USES THEREOF” (Mead Johnson Nutrition Company, priority 2016, published 2018).

Assays:
[1] = tested on: heat shock protein 72 (Hsp72); test: Liver Hsp72 after inescapable tail shock stress in diet-fed rats; format: in vivo, male F344 rats; conditions: diet for 4 weeks, after stressor exposure
Text: This study sought to determine whether the administration of PDX, GOS, and lactoferrin could modulate stress-evoked responses and the concentration of inflammatory cytokines and chemokines in blood or tissue. Briefly, male F344 rats were pair-housed in a barrier facility and fed experimental or control diet for 4 weeks. The diet formulations were as follows: (1) control, (2) diet supplemented with lactoferrin (LAC), (3) diet supplemented with GOS and PDX, and (4) diet supplemented with GOS, PDX, and Lactoferrin.
The rats were pair housed in standard Nalgene Plexiglas cages (45 cm×25.2 cm×14.7 cm) and had ad libitum access to food and water for the duration of the experimental procedures. Food consumption was monitored three times per week by weighing the chow pellets within each food hopper. Following 4 weeks on the diets, rats were exposed to inescapable (IS) or remained within their home cage undisturbed (home cage controls; HCC). IS consisted of 100, 1.5 mA inescapable tail shocks administered at variable intervals over a period of approximately 2 hours. Rats exposed to IS were restrained in Broome-style Plexiglas tubes (23.4 cm in length and 7.0 cm in diameter) with their tails exposed for electrode attachment.
Furthermore, in the same study heat shock protein 72 (Hsp72) was measured in the liver. […]

[2] = tested on: ganglioside-bound sialic acid in corpus callosum and cerebellum; test: Ganglioside-bound sialic acid in brain regions of suckling pigs fed sialyllactose diets (periodic acid-resorcinol reaction); format: in vivo; conditions: diet supplemented with 4 g/L, fed 21 days
Text: This study sought to determine whether administration of certain isomers of sialyllactose could increase or enrich sialic acid in the brain tissues of neonatal pigs. Indeed, accumulation of sialic acid in the brain during neonatal development is associated with increased cognitive functioning. Further, sialic acid (SA) is a key component of human milk oligosaccharides and neural tissues. SA accumulates in the brain rapidly during neonatal development and is thought to play an important role in brain development. […] Piglets readily consumed the formula, grew at normal rates and remained clinically healthy throughout the experiment.
After 21 days, the pigs were euthanized and the left hemisphere of the brain was dissected into cerebrum, cerebellum, corpus callosum, and hippocampus regions. […] The lipid- and protein-bound sialic acid contents from each sample were determined using a modified periodic acid-resorcinol reaction. Free sialic acid was calculated by difference. Briefly, the sialic from the protein and ganglioside fractions was first oxidized using the periodic acid reagent, which released the oxidized sialic-aldehyde derivative quantitatively. The released sialic derivative was measured colorimetrically using the resorcinol-HCl reagent.

[3] = tested on: microbial taxa of the proximal and distal colon; test: Gut microbiome of suckling pigs, 16S rDNA Illumina sequencing of colon digesta; format: in vivo; conditions: 21 days
Text: This study sought to determine whether administration of certain isomers of sialyllactose could modulate the microbiome of developing neonatal pigs, i.e. suckling pigs. Indeed, selectively promoting beneficial gut microbiota in preterm and term infants, toddlers, and children may provide long-term health benefits, including neuronal benefits. Briefly, day-old pigs were randomized among 6 diets; (1) control diet, (2) diet supplemented with 2 g/L of 3′-sialyllactose, (3) diet supplemented with 4 g/L of 3′-sialyllactose, (4) diet supplemented with 2 g/L of 6′-sialyllactose, (5) diet supplement with 4 g/L of 6′-sialyllactose, and (6) 2 g/L PDX and 2 g/L GOS. The pigs were fed three times per day for 21 days.
Pigs were euthanized and intestinal digesta were analyzed from the proximal and distal colon. The microbiome analysis was performed via 16S rDNA Illumina sequencing. Briefly, DNA was extracted from digesta using the UltraClean Tissue and Cells DNA Isolation Kit (MoBio). The DNA was then cleaned using PowerClean DNA Clean-Up Kit (ThermoFisher Scientific, Waltham, Mass.) and quantified with the Qubit Quant-iT dsDNA Broad- Range Kit (MoBio Laboratories, Carlsbad, Calif.). The V4 region of 16S ribosomal RNA was amplified using primers 515F (5#-GTGCCAGCMGCCGCGGTAA-3#) and 806R (5#-[…]-3#). Resulting PCR products were sequenced using Illumina MiSeq paired-end technology. High-quality sequences were searched against Greengenes database and then clustered at 97% sequence identity to form operational taxonomic units (OTUs) and assigned taxonomic classification. Similarity between microbial communities was assessed using the Bray-Curtis distance metric and then visualized using principal coordinates analysis. To test the community differences between microbiota between all groups of samples, we used the Adonis function. Because all genera were considered in the test, the Bonferroni multiple comparison correction was applied.

[4] = supplemented diet, colon digesta

Question: How did the “effect of stress on liver Hsp72 expression” value [1] turn out when lactoferrin was run?
Answer: The value was “reduction in the effect of stress”.

Question: For `CC(=O)N[C@H]1[C@H]([C@H](O)[C@H](O)CO)O[C@@](O[C@H]2[C@@H](O)[C@@H](CO)O[C@@H](O[C@H]3[C@H](O)[C@@H](O)C(O)O[C@@H]3CO)[C@@H]2O)(C(=O)O)C[C@@H]1O` (stereo partly shown) [3′-sialyllactose], which “increase of ganglioside-bound sialic acid in the cerebellum compared to control pigs” value [2] is on record?
Answer: Its value is “over 10%”.

Question: How did the “bacterial taxa of Collinsella aerofaciens, Ruminococcus, Faecalibacterium and Prevotella” value ([3]; diet supplemented with 4 g/L, compared to the control diet) turn out when `CC(=O)N[C@H]1[C@H]([C@H](O)[C@H](O)CO)O[C@@](OC[C@H]2O[C@@H](O[C@H]3[C@H](O)[C@@H](O)[C@H](O)O[C@@H]3CO)[C@H](O)[C@@H](O)[C@H]2O)(C(=O)O)C[C@@H]1O` [6′-sialyllactose] was run?
Answer: Its value is “increase”.

Question: What about the “microbiome difference versus control diet” value ([3]; diet supplemented with 4 g/L, proximal and distal colon) of the same compound?
Answer: Its value is “statistically significant microbiome difference”.

Question: And the “bacterial taxa belonging to the phyla Actinobacteria and Bacteroidetes” value ([3]; diet supplemented with 4 g/L, versus control diet)?
Answer: The value was “statistically significant increase”.

Question: What about the “taxa of the family Enterobacteriaceae and Enterococaceae, fold lower than in the control diet” value [3, 4] of the same compound?
Answer: The value was 2.3 fold.

Question: And the “taxa of the family Lachnospiraceael and order Lactobacillales, fold lower than in the control diet” value [3, 4]?
Answer: The value was 4 fold.
